Source: patent publication US11779582B2, “Composition for preventing or treating metastatic ovarian cancer, endometrial cancer or breast cancer” (LEMONEX INC., priority 2017, dated 2023)

Assays:
Type in all cases: cell-based
[1] = test system: AKT and STAT3 phosphorylation in sphere cultured SKOV3ip1 cells; experiment: immunostaining of AKT and STAT3 phosphorylation, sphere culture
Text: In order to identify whether a change in signaling pathways associated with cell survival appears or not according to 2D monolayer culture (2D MC) and 3D sphere culture (3D SC), immunostaining was implemented. More particularly, after culturing SKOV3ip1 cells (1×10^6) by 2D monolayer culture or 3D sphere culture described in section 1.1, expression of cell-signaling molecules including AKT, STAT3, p42/44 ERK and p38 MAPK was detected and activation states in the monolayer cultured cells and the sphere cultured cells were compared. The monolayer cultured or sphere cultured SKOV3ip1 cells were harvested and washed once with ice-cold 1× phosphate buffered saline, followed by dissolving the same in 100 μl ice-cold RIPA buffer (20 mM Tris-Cl, pH 8.0, 125 mM NaCl, […], 1 mM ethylene diamine tetraacetic acid, 1% Triton X-100, 0.5% sodium deoxycholate, 0.1% sodium dodecyl sulfate, 1× complete protease inhibitor cocktail (Roche, Mannheim, Germany)) on ice. After assessing the protein concentration using a Bradford Protein assay kit (Biorad, CA, USA), the same amount of proteins (30 μg) was separated by SDS-PAGE and moved to a nitrocellulose membrane, followed by immunostaining the same using a horseradish peroxide conjugated second antibody and a specific antibody. An immune activation band was detected with SuperSignal West Pico Chemiluminescent Substrate (Thermo, IL, USA) using a Fusion Solo chemiluminescence analyzer (Vilber Rourmat Marne la Vallee, France). Antibodies to STAT3 (H-190), STAT3 (B-7) phosphorylated at Tyr705 and actin (C-2) were purchased from Santa Cruz Biotechnology. Rabbit monoclonal antibodies on AKT, AKT (D9E) phosphorylated at Ser473, FGFR1 phosphorylated at Tyr 653/654, p42/44 MAPK, phosphorylated p42/44 MAPK, p38 MAPK and p38 MAPK phosphorylated at Tyr 180/182 were purchased from Cell Signaling Technology (MA, USA). Further, HRP-conjugated goat anti-mouse and rabbit secondary antibodies were purchased from Jackson Laboratories, while BGJ398 used in the experiment (against FGFR1/2/3) was purchased from Selleckchem (USA).
Under this ground, in order to determine whether BGJ398 can vary the state of AKT and STAT3 in the sphere cultured SKOV3ip1 cells, the monolayer cultured (MC) or sphere cultured (SC) SKOV3ip1 cells were subjected to treatment using 5 μM BGJ398, followed by examining the degree of phosphorylation due to the above treatment.
Further, the sphere cultured SKOV3ip1 cells were treated with 5 μM BGJ398 (BGJ), 3 μM TAE648 (TAE) and 5 μM imatinib (IMT), respectively. After 72 hours, a cell lysate was obtained and subjected to immunostaining, followed by analyzing active cellular expression of AKT and STAT3 with the antibody for the same. Further, a phosphorylation level of FGFR1 was used as a positive control group relative to BGJ treatment groups while actin was used as a loading control group. The immunostaining assay procedure was implemented in the same manner as in Example 1.
Since the cell survival of the sphere cultured SKOV3ip1 cells is inhibited by BGJ398 treatment, whether such cell survival inhibition is intermediated through JAK/STAT3 signaling pathway was further examined. […]

[2] = test system: SKOV3-TR ovarian cancer cells; experiment: FACS assay of DNA content (propidium iodide), Sub-G1
Procedure: More particularly, the degree of cell apoptosis can be confirmed when DNA content in the cell is treated by propidium iodide (PI) staining and is assessed by FACS. If cell apoptosis occurs, genes in the cells are disrupted and Sub-Gi region below G1 is increased.
FIG. 23 graphically illustrates FACS results, which were divided by a cell cycle in the same experiments described above. Referring to this figure, it can be seen that the treatment using 2.5 μM BGJ398 in combination with 50 nM paclitaxel increases Gub-G1 cells in SKOV-TR cells by about 2.5 times, compared to 50 nM paclitaxel alone, thereby improving anticancer activity.

[3] = test system: AKT phosphorylation and PARP cleavage in SKOV3-TR ovarian cancer cells; experiment: PathScan Intracellular Signaling Array Kit; settings: BGJ398 in combination with paclitaxel (FIG. 26)

CCN1CCN(c2ccc(Nc3cc(N(C)C(=O)Nc4c(Cl)c(OC)cc(OC)c4Cl)ncn3)cc2)CC1 [BGJ398, 3-(2,6-dichloro-3,5-dimethoxyphenyl)-1-[6-[4-(4-ethylpiperazin-1yl)anilino]pyrimidin-4-yl]-1-methylurea]
AKT and STAT3 phosphorylation ([1]; sphere cultured SKOV3ip1, 5 μM BGJ398 (FIG. 6), AG490, 72 hours (FIG. 7B)): suppressed again
phosphorylated AKT at Ser473 ([1]; sphere cultured, 5 μM BGJ398, 3 μM TAE648, 5 μM imatinib, 72 hours (FIG. 6)): inhibits phosphorylated AKT at Ser473 residue
increase of Sub-G1 cells ([2]; 2.5 μM BGJ398 in combination with 50 nM paclitaxel, compared to 50 nM paclitaxel alone (FIG. 23)): about 2.5 times
apoptotic cells (region below G1, Sub-G1) ([2]; BGJ398 in combination with paclitaxel (FIG. 22)): the number of apoptotic cells is increased
cleaved PARP [3]: increasing the cleaved PARP
phosphorylation of AKT at serine 473 [3]: phosphoylation of AKT at serine 473 is reduced
